Results: US20240067693A1, “POLYPEPTIDES AND USES THEREOF” (MEDIMMUNE LIMITED, priority 2020, published 2024)
Numbered stars: 1 amine (or outer) side, 2 acyl side, 3 side chain; on linkers, the order of the positions; unused ones are H or OH. Bridge positions count the residues as written; N and C are the ends. Square brackets hold non-standard residues; d marks the D form. Side chains are listed from the residue outwards. Peptide text beside a SMILES is read from it. * marks the point of attachment. C18 diacid = O=C(O)CCCCCCCCCCCCCCCCC(=O)*; γGlu = O=C(O)[C@H](CCC(=O)[*:2])N[*:1]; αMeF = C[C@](N)(Cc1ccccc1)C(=O)O; Dab = NCC[C@H](N)C(=O)O; AEEA = NCCOCCOCC(=O)O

Key:
[1] = molecular target: T1, human calcitonin receptor (hCTR) (Homo sapiens, UniProt P30988); assay: cAMP production in 1321N1 cells with stable recombinant expression of human calcitonin receptor (hCTR); assay type: cell-based; conditions: cAMP, 1321N1 cells, assay buffer with 0.1% BSA; read-out: EC50 (pM) hCTR
T1 construct: expressed in transfected cells
T1 sequence (P30988 25-474): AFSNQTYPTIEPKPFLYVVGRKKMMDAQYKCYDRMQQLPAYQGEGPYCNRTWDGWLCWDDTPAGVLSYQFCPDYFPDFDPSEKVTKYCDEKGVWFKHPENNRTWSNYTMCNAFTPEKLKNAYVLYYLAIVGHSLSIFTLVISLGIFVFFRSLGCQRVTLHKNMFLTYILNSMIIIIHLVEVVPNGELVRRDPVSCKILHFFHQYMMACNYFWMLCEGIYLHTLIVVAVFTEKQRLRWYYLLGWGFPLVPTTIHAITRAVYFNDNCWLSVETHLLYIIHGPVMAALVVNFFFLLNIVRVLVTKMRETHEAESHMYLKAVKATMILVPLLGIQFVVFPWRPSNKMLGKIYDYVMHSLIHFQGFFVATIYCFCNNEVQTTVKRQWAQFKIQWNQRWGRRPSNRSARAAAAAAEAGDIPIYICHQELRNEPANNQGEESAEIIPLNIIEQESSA
Outline: (§1)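 Receptor-expressing cells (human receptors in 1321N1, rat receptors in HEK) incubated 30 min at room temperature with peptide in HBSS/HEPES pH 7.4, 0.1% BSA, 0.5 mM IBMX. cAMP read by HTRF; EC50 from 4-parameter fit as % of maximal amylin or calcitonin response.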

[2] = Thioflavin T fibrillation assay; assay type: physicochemical; conditions: ThT fibrillation assay; peptide 1 mg/mL in 25 mM sodium acetate buffer pH 4.0; 6 days at 37 °C with shaking; >144 h = no increase
Source text: Peptide aggregation that form fibrils is an indication of physical instability. Fibril formation in solution poses a significant risk for the stability of injectable peptide drug products. Thioflavin T (ThT) fibrillation assay is a useful tool to assess the aggregation kinetics of a peptide or protein under accelerated and stressed conditions that can be used to forecast the long-term viability of a compound in solution. ThT can selectively bind amyloid fibrils and the resultant complex emits strong fluorescence signal at 482 nm when excited at 450 nm (Anal Biochem. 1989 Mar;177(2):244-9). Monitoring of the change in fluorescence signal is an established method to study the fibril forming potential of peptides and proteins. ThT (purchased from Sigma Aldrich) stock solution is prepared by dissolving the ThT powder in Milli-Q water and filtered to obtain a 0.25 mM solution. The concentration of the solution is measured at 412 nm using an extinction coefficient of 36 mM^−1cm^−1. Test peptides were dissolved at 1 mg/mL in 25 mM sodium acetate buffer pH 4.0. 100 μL aliquot of peptide solution and 5 μL aliquot of ThT solution were placed in a clear bottom black fluorescence 96-well plate. 5 replicates of each test samples were placed in zo the same row of the plate. Buffer was placed in control wells for baseline correction. All empty wells were filled with water to prevent evaporation. The plate was sealed with aluminium seal and placed in fluorescence plate reader and incubated for 6 days at 37 ° C. with intermittent orbital shaking at 500 to 750 rpm. The fluorescence intensity was measured every 30 min using excitation at 444 nm and emission at 480 nm. The fibril forming potential of the test peptides was determined by measuring the average time taken to detect an increase in baseline corrected fluorescence intensity.

[3] = molecular target: T2, human amylin receptor (calcitonin receptor co-expressed with receptor activity modifying protein, RAMP3) (hAMYR3) (Homo sapiens, UniProt O60896+P30988); assay: cAMP production in 1321N1 cells with stable recombinant expression of human amylin receptor (hAMYR3); assay type: cell-based; conditions: for Ratio (selectivity hAMYR vs hCTR, ratio of EC50 values at the two receptors): EC50 hCTR / EC50 hAMYR3; for EC50: cAMP, 1321N1 cells, assay buffer with 0.1% BSA, read-out: EC50 (pM) hAMYR3
T2 construct: expressed in transfected cells
T2 sequence (P30988 25-474): T1 sequence (P30988 25-474)
T2 sequence (O60896 24-148 partner): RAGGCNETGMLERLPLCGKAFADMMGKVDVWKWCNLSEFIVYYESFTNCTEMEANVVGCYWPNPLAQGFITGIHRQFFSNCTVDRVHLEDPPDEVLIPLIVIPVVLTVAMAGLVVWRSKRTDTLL
Outline: as §1

In the case of `CC[C@H](C)[C@H](NC(=O)[C@@H]1CCCN1C(=O)CNC(=O)[C@H](Cc1ccccc1)NC(=O)[C@H](CC(N)=O)NC(=O)[C@H](CCN)NC(=O)[C@H](CO)NC(=O)[C@H](CO)NC(=O)[C@H](Cc1c[nH]cn1)NC(=O)[C@@H](NC(=O)[C@H](CC(C)C)NC(=O)[C@H](Cc1ccccc1)NC(=O)[C@H](CC(N)=O)NC(=O)[C@H](C)NC(=O)[C@H](CC(C)C)NC(=O)[C@H](CCCNC(=N)N)NC(=O)[C@H](CCC(N)=O)NC(=O)[C@@H](NC(=O)[C@H](C)NC(=O)[C@@H]1CSSC[C@H](NC(=O)[C@H](CCCCN)NC(=O)[C@@H](N)CCCCNC(=O)CC[C@H](NC(=O)CCCCCCCCCCCCCCCCC(=O)O)C(=O)O)C(=O)N[C@@H](CC(N)=O)C(=O)N[C@@H]([C@@H](C)O)C(=O)N[C@@H](C)C(=O)N[C@@H]([C@@H](C)O)C(=O)N1)[C@@H](C)O)C(C)C)C(=O)N[C@@H](CC(C)C)C(=O)N1CCC[C@H]1C(=O)N1CCC[C@H]1C(=O)N[C@H](C(=O)N[C@@H](CCC(=O)O)C(=O)N[C@H](C(=O)NCC(=O)N[C@@H](CO)C(=O)N[C@@H](CC(N)=O)C(=O)N[C@H](C(=O)N[C@@H](Cc1ccc(O)cc1)C(N)=O)[C@@H](C)O)C(C)C)[C@@H](C)O` [Peptide 28, K(γE-C18diacid)K[CNTATC]ATQRLANFLVHSS(Dab)NFGPILPPTEVGSNTY-amide] (H-K([γGlu-C18 diacid])KCNTATCATQRLANFLVHSS[Dab]NFGPILPPTEVGSNTY-NH2; disulfide 3-8; N-terminus assumed), the EC50 [1] is reported as 9140 pM, the “Time taken to detect increase in fluorescence intensity” value (shortened to “Time taken to detect increase”) [2] is reported as 45 h and the “Ratio (selectivity hAMYR vs hCTR, ratio of EC50 values at the two receptors)” value [3] is reported as 23. For the same compound, the EC50 [3] was 390 pM.

With `CC[C@H](C)[C@H](NC(=O)[C@@H]1CCCN1C(=O)CNC(=O)[C@](C)(Cc1ccccc1)NC(=O)[C@H](CC(N)=O)NC(=O)[C@H](CC(N)=O)NC(=O)[C@H](CO)NC(=O)[C@H](CO)NC(=O)[C@H](Cc1c[nH]cn1)NC(=O)[C@H](CCCNC(=N)N)NC(=O)[C@H](CC(C)C)NC(=O)[C@H](Cc1ccccc1)NC(=O)[C@H](CC(N)=O)NC(=O)[C@H](C)NC(=O)[C@H](CC(C)C)NC(=O)[C@H](CCCNC(=N)N)NC(=O)[C@H](CCC(N)=O)NC(=O)[C@@H](NC(=O)[C@H](C)NC(=O)[C@@H]1CSSC[C@H](NC(=O)[C@@H](N)CCCCNC(=O)COCCOCCNC(=O)COCCOCCNC(=O)CC[C@H](NC(=O)CCCCCCCCCCCCCCCCC(=O)O)C(=O)O)C(=O)N[C@@H](CC(N)=O)C(=O)N[C@@H]([C@@H](C)O)C(=O)N[C@@H](C)C(=O)N[C@@H]([C@@H](C)O)C(=O)N1)[C@@H](C)O)C(=O)N[C@@H](CC(C)C)C(=O)N1CCC[C@H]1C(=O)N1CCC[C@H]1C(=O)N[C@H](C(=O)N[C@@H](CCC(=O)O)C(=O)N[C@H](C(=O)NCC(=O)N[C@@H](CO)C(=O)N[C@@H](CC(N)=O)C(=O)N[C@H](C(=O)N[C@@H](Cc1ccc(O)cc1)C(N)=O)[C@@H](C)O)C(C)C)[C@@H](C)O` [Peptide 17, K(O2Oc-O2Oc-γE-C18diacid)[CNTATC]ATQRLANFLRHSSNN(αMePhe)GPILPPTEVGSNTY-amide] (H-K([AEEA-AEEA-γGlu-C18 diacid])CNTATCATQRLANFLRHSSNN[αMeF]GPILPPTEVGSNTY-NH2; disulfide 2-7; N-terminus assumed) the EC50 [1] was 7080 pM, the “Time taken to detect increase” value [2] was >144 h and the “Ratio (selectivity hAMYR vs hCTR, ratio of EC50 values at the two receptors)” value [3] was 19. It also gave an EC50 [3] of 365 pM.

With `CC[C@H](C)[C@H](NC(=O)[C@@H]1CCCN1C(=O)CNC(=O)[C@](C)(Cc1ccccc1)NC(=O)[C@H](CC(N)=O)NC(=O)[C@H](CC(N)=O)NC(=O)[C@H](CO)NC(=O)[C@H](CO)NC(=O)[C@H](Cc1c[nH]cn1)NC(=O)[C@H](CCCNC(=N)N)NC(=O)[C@H](CC(C)C)NC(=O)[C@H](Cc1ccccc1)NC(=O)[C@H](CCC(=O)O)NC(=O)[C@H](C)NC(=O)[C@H](CC(C)C)NC(=O)[C@H](CCCNC(=N)N)NC(=O)[C@H](CCC(N)=O)NC(=O)[C@@H](NC(=O)[C@H](C)NC(=O)[C@@H]1CSSC[C@H](NC(=O)[C@@H](N)CCCCNC(=O)CC[C@H](NC(=O)CC[C@H](NC(=O)CCCCCCCCCCCCCCCCC(=O)O)C(=O)O)C(=O)O)C(=O)N[C@@H](CC(N)=O)C(=O)N[C@@H]([C@@H](C)O)C(=O)N[C@@H](C)C(=O)N[C@@H]([C@@H](C)O)C(=O)N1)[C@@H](C)O)C(=O)N[C@@H](CC(C)C)C(=O)N1CCC[C@H]1C(=O)N1CCC[C@H]1C(=O)N[C@H](C(=O)N[C@@H](CC(N)=O)C(=O)N[C@H](C(=O)NCC(=O)N[C@@H](CO)C(=O)N[C@@H](CC(N)=O)C(=O)N[C@H](C(=O)N[C@@H](Cc1ccc(O)cc1)C(N)=O)[C@@H](C)O)C(C)C)[C@@H](C)O` [Peptide 11, K(γE-γE-C18diacid)[CNTATC]ATQRLAEFLRHSSNN(αMePhe)GPILPPTNVGSNTY-amide] (H-K([γGlu-γGlu-C18 diacid])CNTATCATQRLAEFLRHSSNN[αMeF]GPILPPTNVGSNTY-NH2; disulfide 2-7) the EC50 [1] was 3640 pM, the “Time taken to detect increase” value [2] was >144 h and the “Ratio (selectivity hAMYR vs hCTR, ratio of EC50 values at the two receptors)” value [3] was 21. It also gave an EC50 [3] of 177 pM.

In the case of `CC[C@H](C)[C@H](NC(=O)[C@@H]1CCCN1C(=O)CNC(=O)[C@H](Cc1ccccc1)NC(=O)[C@H](CC(N)=O)NC(=O)[C@H](CC(N)=O)NC(=O)[C@H](CO)NC(=O)[C@H](CO)NC(=O)[C@H](Cc1c[nH]cn1)NC(=O)[C@@H](NC(=O)[C@H](CC(C)C)NC(=O)[C@H](Cc1ccccc1)NC(=O)[C@H](CCN)NC(=O)[C@H](C)NC(=O)[C@H](CC(C)C)NC(=O)[C@H](CCCNC(=N)N)NC(=O)[C@H](CCC(N)=O)NC(=O)[C@@H](NC(=O)[C@H](C)NC(=O)[C@@H]1CSSC[C@H](NC(=O)[C@H](CCCCN)NC(=O)[C@@H](N)CCCCNC(=O)CC[C@H](NC(=O)CCCCCCCCCCCCCCCCC(=O)O)C(=O)O)C(=O)N[C@@H](CC(N)=O)C(=O)N[C@@H]([C@@H](C)O)C(=O)N[C@@H](C)C(=O)N[C@@H]([C@@H](C)O)C(=O)N1)[C@@H](C)O)C(C)C)C(=O)N[C@@H](CC(C)C)C(=O)N1CCC[C@H]1C(=O)N1CCC[C@H]1C(=O)N[C@H](C(=O)N[C@@H](CC(N)=O)C(=O)N[C@H](C(=O)NCC(=O)N[C@@H](CO)C(=O)N[C@@H](CC(N)=O)C(=O)N[C@H](C(=O)N[C@@H](Cc1ccc(O)cc1)C(N)=O)[C@@H](C)O)C(C)C)[C@@H](C)O` [Peptide 33] (H-K([γGlu-C18 diacid])KCNTATCATQRLA[Dab]FLVHSSNNFGPILPPTNVGSNTY-NH2; disulfide 3-8; N-terminus assumed), the EC50 [1] is reported as 15800 pM, the “Time taken to detect increase” value [2] is reported as >144 h and the “Ratio (selectivity hAMYR vs hCTR, ratio of EC50 values at the two receptors)” value [3] is reported as 26. For the same compound, the EC50 [3] was 598 pM.
